Experimental data taken from BindingDB's records for doi:10.1021/jm00055a010 (Salk Institute, 1993).
pKi: −log10 of the molar value.

Target: T1, Neuropeptide Y receptor type 1 (Homo sapiens, UniProt P25929)
T1 sequence (P25929 whole entry): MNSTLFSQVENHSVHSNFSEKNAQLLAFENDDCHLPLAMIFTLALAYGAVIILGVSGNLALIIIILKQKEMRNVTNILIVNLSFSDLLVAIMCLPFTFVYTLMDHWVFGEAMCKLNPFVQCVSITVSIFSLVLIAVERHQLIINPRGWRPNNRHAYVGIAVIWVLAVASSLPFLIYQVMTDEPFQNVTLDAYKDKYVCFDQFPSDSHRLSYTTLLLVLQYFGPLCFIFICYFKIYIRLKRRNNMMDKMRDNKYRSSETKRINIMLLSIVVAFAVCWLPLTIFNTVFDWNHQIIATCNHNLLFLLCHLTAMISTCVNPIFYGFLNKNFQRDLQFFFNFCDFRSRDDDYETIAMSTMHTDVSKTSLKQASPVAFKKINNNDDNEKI
Test: Tested against neuropeptide Y1 receptors using SK-N-MC human neuroblastoma cells

pKi: < 6.00
SMILES: CC[C@H](C)[C@H](NC(=O)[C@H](CC(C)C)NC(=O)[C@H](CC(N)=O)NC(=O)[C@@H](NC(=O)[C@H]1CNC(=O)CC[C@H](NC(=O)[C@@H](N)Cc2ccc(O)cc2)C(=O)N[C@@H](CO)C(=O)N[C@@H](CCCCN)C(=O)N2CCC[C@H]2C(=O)NCC(=O)N[C@@H](CCCN=C(N)N)C(=O)N[C@@H](Cc2c[nH]cn2)C(=O)N1)[C@@H](C)CC)C(=O)N[C@H](C(=O)N[C@@H](CCCN=C(N)N)C(=O)N[C@@H](CCC(N)=O)C(=O)N[C@@H](CCCN=C(N)N)C(=O)N[C@@H](Cc1ccc(O)cc1)C(N)=O)[C@@H](C)O
